Entries after “also recorded” stand apart in the source; their conditions may differ.
What was measured:
[1] = system: Huh7 tumor cells; test: In vivo fluorescence imaging following ICG administration in Huh7 xenograft mice; parameters: species or system immunodeficient mice; settings: 0.5 mg/kg ICG dose, FIG. 32
Protocol: Other areas of high signal represents concentration within the intestinal lumen. Control mouse without tumor is shown on the left side.
Xenotransplantation of the following cell lines is performed: FLX1 (FLC), Huh-7 (HCC) and HepG2 (well-differentiated HCC) in immunodeficient mice. […] Therefore, the dose is escalated to an appropriate level. Even though the majority of the models use HCC cells, the findings are applicable to FLC since FLC also has the ability to retain ICG (FIGS. 31A-31D). Currently, there is only one readily available FLC cell line, which also has the property to be engrafted in an immunodeficient mouse model.

[2] = system: FLC tumor tissue; test: Gross and microscopic ICG localization in FLC patients (near-infrared fluorescence at surgery); type: in vivo, patient; settings: intravenous ICG 48 hours prior to surgery, FIGS. 31A-31D
Protocol: ICG is administered several days prior to surgery, which subsequently is cleared from the blood and normal liver but is retained in tumor tissue. At the time of surgery, a near-infrared camera is used to identify ICG retaining tumor tissue since it fluoresces in response to near-infrared wave.^22,23 The use of ICG for localization of HCC and hepatoblastoma has been reported^16-18,21,22,30 however, there are no published reports regarding its use in FLC. […] The MDR3 transporter, which is responsible for export of ICG into the bile canaliculi is also expressed in tumor cells, albeit at lower levels.

[3] = In vivo biodistribution of 18F-SFB-ICG in wild type mice by whole body PET/CT; parameters: species or system female C57BL/6 mice
Protocol: (§1) The study was comprised of female C57BL/6 mice (n=4, 20.4+0.8 g, age 12.9 weeks). The modalities were whole body PET/CT and whole blood gamma counting which were performed on the mice using the imaging agent ^18F-SFB-ICG as outlined in Table 1. Briefly, the mice were imaged in a 2-bed imaging hotel with imaging agent administered intravenously while animals were on camera (volume dosed was maintained constant to keep mass dose constant). 1 hour dynamic PET data was acquired, followed by CT. A static 30 minute PET dataset was acquired at 4 hours, also followed by CT. A blood sample was taken immediately following each imaging time point for gamma counting.
PET/CT: PET images were co-registered to CT images and resampled to uniform voxel size (0.2 mm^3). The injected activity doses were normalized to the averaged activity in the field of view (FOV) in the final 6 frames of the dynamic scan (FOV-based normalization). The Regions of Interest (ROIs) were defined using various methods in VivoQuant software: A fixed volume ellipsoidal ROI was placed in the center of the heart, to encompass a volume of representative concentration for that region. The fixed volume sphere ROIs were placed in the center of the lobes of the lungs (2), and throughout the spleen (3) to encompass a volume of representative concentration for those regions. Based on the CT and PET, the following organs were segmented as completely as possible: liver, gallbladder, small intestines, cecum, and large intestines. The activity concentration was reported as Standardized Uptake Value (SUV), equating to the […]. For fully segmented organs, uptake was also reported in percentage injected dose (% ID). FIGS. 17A-17D show resulting PET/CT images of a representative wild type mouse.

[4] = Whole blood gamma counting after 18F-SFB-ICG injection; type: in vivo, female C57BL/6 mice; settings: FIG. 24B
Protocol: as §1
Gamma Counting: Whole blood samples were collected after each imaging session for ex vivo radioactivity analysis by gamma counting. Triplicates of ^18F-SFB-ICG were also counted to calculate an efficiency factor from which counts could be converted to units of activity (μCi). The sample activities were corrected for background radiation and decay-corrected to the injection time. The tissue volumes were estimated through measurement of sample weights, and blood activity was reported as % ID/g and SUV.

[5] = [18F]SFB-ICG stability by HPLC (RCP); type: physicochemical
Protocol: FIGS. 11A-11B show HPLC traces of [^18F]SFB-ICG stability at 1 hour, and 2 hours.

With `CC1(C)C(/C=C/C=C/C=C/C=C2\N(CCCCS(=O)(=O)O)c3ccc4ccccc4c3C2(C)C)=[N+](CCCCS(=O)(=O)[O-])c2ccc3ccccc3c21` [ICG, indocyanine green] the “uptake by implanted Huh7 tumor cells” value [1] was “demonstrate uptake; also recorded: ICG uptake by Huh7 tumor cells” and the “ICG uptake/accumulation in FLC tumor tissue and metastases” value [2] was “accumulation of ICG in metastatic tumor bed; also recorded: fluorescence (white) within tumor cells; also recorded: accumulates in FLC; also recorded: ICG uptake by tumor tissue in the liver as well as metastatic deposits”.
For `CC1(C)C(/C=C/C=C/C=C/C=C2/N(CCCCCC(=O)NCCNC(=O)c3ccc([18F])cc3)c3ccc4ccccc4c3C2(C)C)=[N+](CCCCS(=O)(=O)[O-])c2ccc3ccccc3c21` [[^18F]ICG], the “time to evidence of excretion of the tracer into the gallbladder via the biliary system” value ([3]; IV, wild-type mice) was no more than 20 min, the “time to evidence of the tracer in the lumen of the small intestine” value ([3]; IV, wild-type mice) was no more than 45 min and the “signal intensity in the liver” value ([3]; at 4 hours post injection) was “decreased significantly”. For the same molecule, the tracer localization ([3]; at 4 hours post injection) was “majority of the tracer is localized to the lumen of the intestines”, the tracer localization ([3]; by 5 minutes post injection) was “predominantly localized to the liver” and the “percentage of injected dose localized to the cecum” value ([3]; cecum, at 4 hours, IV, wild-type mice) was “approximately 30 % ID”. For the same molecule, the “percentage of injected dose localized to the liver” value ([3]; by 10 minutes, IV, wild-type mice, FIG. 18B) was roughly 70%, the “percentage of injected dose localized to the liver” value ([3]; by 4 hours, IV, wild-type mice) was “about 40 % ID” and the “uptake by other organs via the circulation” value ([3]; organs other than liver) was “no significant uptake by any other organs”. The tracer localization ([3]; time 0 post injection) was “localized to the heart and the major vessels”, the “activity present in whole blood” value ([4]; 1 hour) was 2-2.5 % ID and the “activity present in whole blood” value ([4]; 4 hours) was 1 % ID.
With `CC1(C)C(/C=C/C=C/C=C/C=C2/N(CCCCCC(=O)NCCNC(=O)c3ccc([18F])cc3)c3ccc4ccccc4c3C2(C)C)=[N+](CCCCS(=O)(=O)[O-])c2ccc3ccccc3c21` [[^18F]SFB-ICG] the “RCP (stability)” value ([5]; at 1 hour) was 95% and the “RCP (stability)” value ([5]; at 2 hours) was 96%.
With `CC1(C)C(/C=C/C=C/C=C/C=C2/N(CCCCCC(=O)NCCNC(=O)c3ccc([18F])cc3)c3ccc4ccccc4c3C2(C)C)=[N+](CCCCS(=O)(=O)[O-])c2ccc3ccccc3c21` [^18F-SFB-ICG] the tracer localization ([3]; at 4 hours post injection) was “most intense signal is present within the lumen of the intestines”, the tracer localization ([3]; by 5 minutes post injection) was “majority of the tracer is localized to the liver” and the “PET signal in large intestines and cecum” value ([3]; time activity curves, FIGS. 18A-18B) was “not observed until the 4 hour time point”.

Reference: patent US20260256924A1, “INDOCYANINE GREEN (ICG) MODIFICATION FOR TREATMENT OF LIVER CANCER” (The Children's Medical Center Corporation, priority 2022, published 2026)
